{
  "source": "patent US20230116196A1",
  "about": "“METHOD OF TREATING CNS DISORDERS WITH NEU[…] GABAERGIC COMPOUNDS” (priority 2017, published 2023)",
  "key": {"[1]": {"system": "dentate gyrus granule cells (DGGCs)", "format": "cell-based, mouse", "settings": "protocol as FIG. 3", "experimental": "Brain slices were prepared from 3- to 5-week-old male C57 mice. Mice were anesthetized with isoflurane, decapitated, and brains were rapidly removed and submerged in ice-cold cutting solution containing (mM): 126 NaCl, 2.5 KCl, 0.5 CaCl2, 2 MgCl2, 26 NaHCO3, 1.25 NaH2PO4, 10 glucose, 1.5 sodium pyruvate, and 3 kynurenic acid. Coronal 310 μm thick slices were cut with the vibratome VT1000S (Leica Microsystems, St Louis, Mo., USA). The slices were then transferred into incubation chamber filled with prewarmed (31-32° C.) oxygenated artificial cerebro-spinal fluid (ACSF) of the following composition (in mM): 126 NaCl, 2.5 KCl, 2 CaCl2, 2 MgCl2, 26 NaHCO3, 1.25 NaH2PO4, 10 glucose, 1.5 sodium pyruvate, 1 glutamine, 3 kynurenic acid and 0.005 GABA bubbled with 95% O2-5% CO2. Slices were allowed to recover at 32° C. for at least 1 hr before recording. Exogenous GABA was added in an attempt to standardize ambient GABA in the slice and provide an agonist source for newly inserted extrasynaptic GABAARs.\nAfter recovery, a single slice was transferred to a submerged, dual perfusion recording chamber (Warner Instruments, Hamden, Conn., USA) on the stage of an upright microscope (Nikon FN-1) with a 40× water immersion objective equipped with DIC/IR optics. Slices were maintained at 32° C. and gravity-superfused with ACSF solution throughout experimentation and perfused at rate of 2 ml/min with oxygenated (O2/CO2 95/5%) ACSF.\nWhole-cell currents were recorded from the dentate gyrus granule cells (DGGCs) in 310-μm-thick coronal hippocampal slices. Patch pipettes (5-7MΩ) were pulled from borosilicate glass (World Precision Instruments) and filled with intracellular solution of the composition (in mM) as follows: 140 CsCl, 1 MgCl2, 0.1 EGTA, 10 HEPES, 2 Mg-ATP, 4 NaCl and 0.3 Na-GTP (pH=7.2 with CsOH). A 5 min period for stabilization after obtaining the whole-cell recording conformation (holding potential of −60 mV) was allowed before currents were recorded using an Axopatch 200B amplifier (Molecular Devices), low-pass filtered at 2 kHz, digitized at 20 kHz (Digidata 1440A; Molecular Devices), and stored for offline analysis.\nFor tonic current measurements, an all-points histogram was plotted for a 10 s period before and during 100 μM picrotoxin application, once the response reached a plateau level. Recordings with unstable baselines were discarded. Fitting the histogram with a Gaussian distribution gave the mean baseline current amplitude and the difference between the amplitudes before and during picrotoxin was considered to be the tonic current. The negative section of the all-points histogram which corresponds to the inward IPSCs was not fitted with a Gaussian distribution (Kretschmannova et al., 2013; Nusser and Mody, 2002). Series resistance and whole-cell capacitance were continually monitored and compensated throughout the course of the experiment. Recordings were eliminated from data analysis if series resistance increased by >20%. Spontaneous inhibitory post-synaptic currents (sIPSCs) were analyzed using the mini-analysis software (version 5.6.4; Synaptosoft, Decatur, Ga.). Minimum threshold detection was set to 3 times the value of baseline noise signal. To assess sIPSC kinetics, the recording trace was visually inspected and only events with a stable baseline, sharp rising phase, and single peak were used to negate artifacts due to event summation. Only recordings with a minimum of 200 events fitting these criteria were analyzed. sIPSCs amplitude, and frequency from each experimental condition was pooled and expressed as mean±SEM. To measure sIPSC decay, 100 consecutive events were averaged and the decay was fitted to a double exponential and the weighted decay constant (tw) was determined. Statistical analysis was performed by using Student t-test (paired and unpaired where appropriate), where p<0.05 is considered significant."}, "GT1-7 cells [2]": {"system": "GT1-7 cells", "experiment": "Patch-clamp of GABA-induced currents (IGABA) in GT1-7 cells", "format": "cell-based", "settings": "100 nM in electrolyte, GABA EC20, 20 min time course", "experimental": "Patch-clamp recordings were made from GT1-7 cells. The magnitude of the GABA-induced currents (IGABA) at EC20 agonists concentration were then measured, in the presence of control electrolyte or that supplemented with 100 nM ALLO, or 100 nM ORG OD 02-0 over a time course of 20 min."}, "[3]": {"system": "GABAA receptor β3 subunit S408/9", "experiment": "Immunoblot of β3 S408/9 phosphorylation in hippocampal slices", "format": "cell-based, mouse", "settings": "100 nM", "experimental": "Asterisks represent a significant difference from control (ALLO: p<0.01, Student's t-test, n=10 slices, from 10 mice; SGE-516: p<0.05, Student's t-test, n=4 slices, from 4 mice). […] Asterisks represent a significant difference from control (ALLO: p<0.05, Student's t-test, n=8 slices; SGE-516: p<0.05, Student's t-test, n=4 slices).\nHippocampi were dissected out of acute slices from 8 to 12 week old C57/Bl6 mice and lysed with […] including: 20 mM Tris-HCl, 150 mM NaCl, 5 mM EDTA, 10 mM NaF, 2 mM Na3VO4, 10 mM pyrophosphate, 0.1% SDS and 1% Triton after drug treatment. The β3 subunit was isolated using immunoprecipitation with β3 antibodies, after correction for protein content and the specific activity of labeling. Results were attained by SDS/PAGE followed by autoradiography (Abramian et al., 2010). For biotinylation experiments hippocampi were dissected out of acute slices from 8 to 12 week old C57/Bl6 mice and incubated in artificial cerebrospinal fluid (ACSF) described above at 30° C. for 1 h for recovery before experimentation. Slices were then placed on ice and incubated for 30 min with 1 mg/mL NHS-SS-biotin (Pierce). Excess biotin was removed by a 50 mM glycine quenching buffer, followed by washing of slices three times in ice-cold ACSF. The tissue was snap frozen on dry ice for 5 min, thawed at 4° C. and lysed. The lysates were solubilized with 2% Triton at 4° C. on a rotating wheel for 1 h. The insoluble material was removed by centrifugation, and 350-500 μg of protein lysate were incubated with NeutrAvidin beads (Pierce) for 18-24 h at 4° C. Bound material was eluted with sample buffer and subjected to SDS/PAGE and then immunoblotted with the indicated antibodies. Blots were then quantified using the CCD-based ChemiDoc XRS ? system. Antibodies against the β3 subunit and the phospho-β3 antibody were generated and verified by the laboratory of S.J.M. (Vien et al., 2015).\nTreatment of hippocampal slices with SGE-516 increased the phosphorylation of S408/9 measured using pS408/9 antibodies. To produce antibodies specific for phosphorylated S443, rabbits were injected with a synthetic peptide corresponding to residues […] of the murine α4 subunit in which the serine residue corresponding to S443 was chemically phosphorylated; […]. Hippocampal slices were treated with vehicle (Con), or SGE-516 for 20 min. Slices were immunoblotted with pS408/9, β3, or actin antibodies. The ratio of pS408/9/β3 immunoreactivity was then normalized to control slices (100%=the line).\nHippocampal slices were treated with 100 nM ALLO or P4 (progesterone), and S408/9 phosphorylation was then determined as detailed above, n=4 slices (FIG. 18D). Hippocampal slices were treated with 100 nM ORG (FIG. 18E). S408/9 phosphorylation was examined using immunoblotting. […]"}, "[4]": {"system": "GABAARs composed of α4β3 subunits", "experiment": "Acute modulation of IGABA in HEK-293 expressing GABAARs", "format": "cell-based", "settings": "100 mM (so in the source), rapidly applied with GABA"}, "GT1-7 cells [5]": {"system": "GT1-7 cells", "experiment": "Immunoblot of β3 S408/9 phosphorylation in GT1-7 cells", "format": "cell-based", "settings": "100 nM, 15 min", "experimental": "GT1-7 cells that co-express mPRα and GABAARs were used to measure the level of phosphorylation at S408/9 position of β3 subunit. […] Expression of mPRα was confirmed using western blotting.\nGT1-7 cells were treated with 100 nM AllO or P4 for 15 min and immunoblotted with antibodies specifically recognizing β3, actin, and […] β3 subunit (pS408/9). The ratio of pS408/9 β3 subunit immunoreactivity were then normalized to levels seen in vehicle treated to controls, n=6."}, "[6]": {"system": "dentate gyrus granule cells (DGGCs)", "settings": "Abramian et al., 2010, 2014; cited from earlier work"}, "α4β3δ GABAA receptors": {"molecular_target": "T1, α4β3δ GABAA receptors (Homo sapiens, UniProt O14764+P28472+P48169)", "T1 construct": "expressed in transfected cells; host or cells: CHO cells, transiently transfected (Lipofectamine)", "T1 sequence (P48169 36-554)": "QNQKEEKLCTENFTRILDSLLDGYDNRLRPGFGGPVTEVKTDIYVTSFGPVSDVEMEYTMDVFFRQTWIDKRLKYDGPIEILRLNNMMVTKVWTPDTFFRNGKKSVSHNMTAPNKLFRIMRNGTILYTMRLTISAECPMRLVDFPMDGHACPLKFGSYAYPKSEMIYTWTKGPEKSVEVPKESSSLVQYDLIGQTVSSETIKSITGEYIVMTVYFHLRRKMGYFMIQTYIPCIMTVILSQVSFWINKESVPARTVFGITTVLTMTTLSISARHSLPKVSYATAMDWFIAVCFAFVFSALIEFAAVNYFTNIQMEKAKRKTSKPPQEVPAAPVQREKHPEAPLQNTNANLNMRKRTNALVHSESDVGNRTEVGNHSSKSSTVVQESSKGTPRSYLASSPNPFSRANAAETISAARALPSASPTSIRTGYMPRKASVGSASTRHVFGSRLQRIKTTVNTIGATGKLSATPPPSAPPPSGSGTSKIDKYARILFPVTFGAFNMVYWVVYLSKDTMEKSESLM", "T1 sequence (P28472 26-473)": "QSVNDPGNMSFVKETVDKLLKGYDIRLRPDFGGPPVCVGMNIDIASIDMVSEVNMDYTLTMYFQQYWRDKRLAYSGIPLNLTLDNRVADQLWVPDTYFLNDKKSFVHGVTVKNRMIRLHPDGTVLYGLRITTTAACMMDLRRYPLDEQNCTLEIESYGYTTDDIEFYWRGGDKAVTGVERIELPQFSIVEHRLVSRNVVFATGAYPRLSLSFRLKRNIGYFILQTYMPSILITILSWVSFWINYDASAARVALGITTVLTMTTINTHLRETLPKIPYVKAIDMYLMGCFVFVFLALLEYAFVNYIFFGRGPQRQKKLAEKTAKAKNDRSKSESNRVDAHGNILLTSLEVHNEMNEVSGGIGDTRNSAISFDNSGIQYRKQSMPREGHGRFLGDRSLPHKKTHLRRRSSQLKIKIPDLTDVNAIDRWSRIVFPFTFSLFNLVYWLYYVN", "T1 sequence (O14764 25-452)": "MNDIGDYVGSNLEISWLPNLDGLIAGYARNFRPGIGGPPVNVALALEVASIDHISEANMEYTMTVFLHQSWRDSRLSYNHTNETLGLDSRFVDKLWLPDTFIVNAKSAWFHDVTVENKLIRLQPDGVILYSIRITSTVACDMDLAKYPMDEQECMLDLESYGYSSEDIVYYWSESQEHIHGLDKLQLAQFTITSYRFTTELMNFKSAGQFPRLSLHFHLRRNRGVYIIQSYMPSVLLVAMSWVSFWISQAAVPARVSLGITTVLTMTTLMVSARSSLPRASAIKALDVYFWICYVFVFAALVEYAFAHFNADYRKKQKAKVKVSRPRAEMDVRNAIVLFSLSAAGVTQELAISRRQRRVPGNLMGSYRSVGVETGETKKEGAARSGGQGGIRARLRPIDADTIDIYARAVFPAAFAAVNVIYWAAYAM", "experiment": "Whole-cell patch clamp: potentiation of GABA EC20 currents at recombinant α4β3δ GABAA receptors", "format": "cell-based", "settings": "data not shown", "experimental": "Cellular electrophysiology was used to measure the pharmacological properties of ALLO, ganaxolone and SGE-516 in heterologous cell systems. Compounds were tested for their ability to affect GABA mediated currents at a submaximal agonist dose (GABA EC20=2 μM).\nLTK cells were stably transfected with the α1β2γ2 subunits of the GABA receptor and CHO cells are transiently transfected with the α4β3γ subunits via the Lipofecatamine method. Cells were passaged at a confluence of about 50-80% and then seeded onto 35 mm sterile culture dishes containing 2 ml culture complete medium without antibiotics or antimycotics. Cells were cultivated at a density that enabled the recording of single cells without visible connections to other cells.\nWhole-cell currents were measured with HEKA EPC-10 amplifiers using PatchMaster software. Bath solution for all experiments contained (in mM): NaCl 137, KCl 4, CaCl2 1.8, MgCl2 1, HEPES 10, D-Glucose 10, pH 7.4 with NaOH. Intracellular (pipette) solution contained (in mM): KCl 130, MgCl2 1, Mg-ATP 5, HEPES 10, EGTA 5, pH 7.2 with KOH. During experiments, cells and solutions were maintained at room temperature (19° C.-30° C.). For manual patchclamp recordings, cell culture dishes were placed on the dish holder of the microscope and continuously perfused (1 ml/min) with bath solution. After formation of a Gigaohm seal between the patch electrode and the cell (pipette resistance range: 2.5 MΩ-6.0MΩ; seal resistance range: >1 GΩ) the cell membrane across the pipette tip was ruptured to assure electrical access to the cell interior (whole-cell patch configuration).\nCells were voltage-clamped at a holding potential of −80 mV. GABAA receptors were activated by 2 μM GABA and compounds were sequentially applied at increasing concentrations for 30 s prior to a 2 s application of GABA. GABA and compounds were applied to cells via the Dynaflow perfusion system (Cellectricon, Sweden). Test compounds were dissolved in DMSO to form 10 mM stock solution and serially diluted to 0.01, 0.1, 1, and 10 μM in bath solution. There was no effect on GABA currents when DMSO was applied to cells at its maximal concentration in solution (0.1%). All concentrations of test compound were tested on each cell. The relative percentage potentiation was defined as the peak amplitude in response to GABA EC20 in the presence of test compound divided by the peak amplitude in response to GABA EC20 alone, multiplied by 100.\nALLO and ganaxolone are known PAMs of both synaptic and extrasynaptic GABAAR-mediated currents. The ability of candidate compound SGE-516 to act as a PAM was compared to ALLO and ganaxolone using the whole-cell recordings of recombinant human GABAA receptors expressed in mammalian cells. The α1β2γ2 or α4β3δ subunit combinations were chosen as representatives of typical synaptic and extrasynaptic GABAA receptors respectively. Similar to previous reports (Botella et al., 2015), ALLO, ganaxolone and SGE-516 allosterically potentiated currents induced by EC20 concentration of GABA in a concentration-dependent manner in both synaptic- and extrasynaptic-type GABAARs."}},
  "data": [
    {"smiles": "C=C[C@]12CCC(=O)C=C1CCC1C2CC[C@@]2(C)C1CC[C@@H]2C(C)=O", "note": "(stereo partly drawn) [ORG OD 02-0]", "values": [
      {"measurement": "amplitude and density of GABAergic tonic current, varying doses", "setting": "[1]", "result": "dosage-dependent effect"},
      {"measurement": "GABA-evoked currents recorded from GT1-7 cells", "setting": "GT1-7 cells [2]", "result": "sustained increases"},
      {"measurement": "S408/9 phosphorylation in hippocampal slices (FIG. 18)", "setting": "[3]", "result": "regulated"},
      {"measurement": "acute modulation of function of GABAARs composed of α4β3 subunits", "setting": "[4]", "result": "did not acutely modulate"}
    ]},
    {"smiles": "CC(=O)[C@H]1CC[C@H]2[C@@H]3CCC4=CC(=O)CC[C@]4(C)[C@H]3CC[C@]12C", "note": "[P4, Progesterone]", "values": [
      {"measurement": "amplitude and density of GABAergic tonic current, varying doses", "setting": "[1]", "result": "dosage-dependent effect"},
      {"measurement": "S408/9 phosphorylation in GT1-7 cells", "setting": "GT1-7 cells [5]", "result": "increase"},
      {"measurement": "S408/9 phosphorylation in hippocampal slices (FIG. 18)", "setting": "[3]", "result": "regulated"}
    ]},
    {"smiles": "C[C@]12CC[C@@H](O)C[C@H]1CC[C@@H]1[C@@H]2CC[C@]2(C)[C@@H](C(=O)CO)CC[C@@H]12", "note": "[THDOC, Tetrahydrodeoxycorticosterone]", "values": [
      {"measurement": "sustained effect on GABAergic tonic current", "setting": "[6]", "result": "long lasting increase"}
    ]},
    {"smiles": "CN1C(=O)CN=C(c2ccccc2)c2cc(Cl)ccc21", "note": "[diazepam]", "values": [
      {"measurement": "effect on GABA evoked currents in α4β3δ receptors", "setting": "α4β3δ GABAA receptors", "result": "did not alter"}
    ]}
  ]
}
